Each structure is given as a SMILES string. A value given as a limit tells only on which side of the number the result lay.

In assay [1] the target is T1, Histone-lysine N-methyltransferase EHMT1 (Homo sapiens) (UniProt Q9H9B1).
T1 sequence (whole entry): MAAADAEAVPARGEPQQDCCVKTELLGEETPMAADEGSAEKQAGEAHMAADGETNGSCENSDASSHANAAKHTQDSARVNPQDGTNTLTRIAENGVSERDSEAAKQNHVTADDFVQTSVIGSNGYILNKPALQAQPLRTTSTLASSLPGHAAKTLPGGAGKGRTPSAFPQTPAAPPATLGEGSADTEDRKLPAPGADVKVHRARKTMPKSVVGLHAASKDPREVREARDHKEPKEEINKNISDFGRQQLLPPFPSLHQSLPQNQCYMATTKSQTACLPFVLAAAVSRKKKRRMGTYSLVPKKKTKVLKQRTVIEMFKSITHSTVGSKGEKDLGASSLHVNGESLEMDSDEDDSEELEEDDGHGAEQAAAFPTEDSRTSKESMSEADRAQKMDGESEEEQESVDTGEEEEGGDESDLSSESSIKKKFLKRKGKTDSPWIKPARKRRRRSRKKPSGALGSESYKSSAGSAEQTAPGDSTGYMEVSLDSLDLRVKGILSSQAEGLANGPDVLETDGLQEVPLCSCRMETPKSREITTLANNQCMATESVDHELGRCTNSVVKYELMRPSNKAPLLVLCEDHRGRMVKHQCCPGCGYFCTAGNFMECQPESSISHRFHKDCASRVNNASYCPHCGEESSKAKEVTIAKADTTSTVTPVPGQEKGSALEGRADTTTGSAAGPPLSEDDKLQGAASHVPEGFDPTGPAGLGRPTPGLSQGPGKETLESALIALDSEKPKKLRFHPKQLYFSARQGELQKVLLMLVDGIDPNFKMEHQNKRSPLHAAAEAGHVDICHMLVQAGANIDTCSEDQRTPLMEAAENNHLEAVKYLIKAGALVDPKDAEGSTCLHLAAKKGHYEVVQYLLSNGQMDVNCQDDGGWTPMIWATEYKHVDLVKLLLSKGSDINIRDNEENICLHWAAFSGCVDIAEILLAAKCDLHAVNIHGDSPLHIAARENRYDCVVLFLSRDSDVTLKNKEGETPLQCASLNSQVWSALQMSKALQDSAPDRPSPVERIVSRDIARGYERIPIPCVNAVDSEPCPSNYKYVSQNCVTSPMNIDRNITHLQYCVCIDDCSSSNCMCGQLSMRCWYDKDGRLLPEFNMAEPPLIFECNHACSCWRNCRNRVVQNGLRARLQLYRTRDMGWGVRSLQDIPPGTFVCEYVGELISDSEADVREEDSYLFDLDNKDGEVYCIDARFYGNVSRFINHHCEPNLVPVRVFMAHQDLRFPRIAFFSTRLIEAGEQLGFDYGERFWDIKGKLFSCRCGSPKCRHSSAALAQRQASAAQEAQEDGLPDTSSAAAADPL
As to the kind of experiment: Inhibition of EHMT1 (unknown origin) at 10 uM relative to control.

Assay [2] deals with T2, Histone-lysine N-methyltransferase NSD2 (Homo sapiens) (UniProt O96028).
T2 sequence (whole entry): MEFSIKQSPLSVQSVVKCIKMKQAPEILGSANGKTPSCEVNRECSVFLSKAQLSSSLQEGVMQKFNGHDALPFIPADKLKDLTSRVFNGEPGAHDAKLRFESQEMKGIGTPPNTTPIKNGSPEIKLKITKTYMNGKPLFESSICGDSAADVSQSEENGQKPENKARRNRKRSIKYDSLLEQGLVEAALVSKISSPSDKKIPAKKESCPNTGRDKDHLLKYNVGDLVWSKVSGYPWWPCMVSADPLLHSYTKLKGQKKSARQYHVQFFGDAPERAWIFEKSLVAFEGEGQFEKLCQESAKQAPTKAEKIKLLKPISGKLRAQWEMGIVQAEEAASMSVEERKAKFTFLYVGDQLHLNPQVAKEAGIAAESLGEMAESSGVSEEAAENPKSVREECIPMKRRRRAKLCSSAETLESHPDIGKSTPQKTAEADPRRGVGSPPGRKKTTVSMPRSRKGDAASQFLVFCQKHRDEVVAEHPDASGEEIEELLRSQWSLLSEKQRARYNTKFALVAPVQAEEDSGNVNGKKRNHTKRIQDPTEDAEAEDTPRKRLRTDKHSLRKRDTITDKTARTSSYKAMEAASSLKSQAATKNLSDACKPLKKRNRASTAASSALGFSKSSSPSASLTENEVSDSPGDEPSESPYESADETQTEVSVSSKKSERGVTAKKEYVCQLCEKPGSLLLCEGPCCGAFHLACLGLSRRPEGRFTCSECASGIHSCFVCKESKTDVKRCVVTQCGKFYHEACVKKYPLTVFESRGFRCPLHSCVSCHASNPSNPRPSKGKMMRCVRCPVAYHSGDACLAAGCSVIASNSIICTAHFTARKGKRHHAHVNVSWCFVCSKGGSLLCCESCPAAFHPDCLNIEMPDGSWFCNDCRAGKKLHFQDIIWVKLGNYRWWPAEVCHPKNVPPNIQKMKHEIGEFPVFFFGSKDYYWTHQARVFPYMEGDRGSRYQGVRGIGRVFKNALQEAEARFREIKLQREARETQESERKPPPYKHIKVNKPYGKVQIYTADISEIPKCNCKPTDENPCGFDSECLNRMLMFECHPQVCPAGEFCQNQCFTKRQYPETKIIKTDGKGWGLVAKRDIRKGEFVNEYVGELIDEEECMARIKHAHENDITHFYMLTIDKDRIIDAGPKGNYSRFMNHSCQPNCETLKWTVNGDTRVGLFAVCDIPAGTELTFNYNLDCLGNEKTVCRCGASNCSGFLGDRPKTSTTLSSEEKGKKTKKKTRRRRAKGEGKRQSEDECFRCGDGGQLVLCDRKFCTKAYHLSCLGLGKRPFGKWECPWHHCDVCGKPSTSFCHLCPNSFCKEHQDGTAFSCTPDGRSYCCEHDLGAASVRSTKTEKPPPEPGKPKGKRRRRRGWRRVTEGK
As to the kind of experiment: Inhibition of WHSC1 (unknown origin) at 10 uM relative to control.

In the case of `O=C1Cc2cc(C(=O)N[C@H]3C[C@H]4CC[C@@H](C3)N4S(=O)(=O)N3CCC(NCc4ccccc4)CC3)c(Cl)cc2N1`, the inhibition in assay [1] and in assay [2] was less than 30% in each case.
Regarding `O=C1Cc2cc(C(=O)N[C@H]3C[C@H]4CC[C@@H](C3)N4S(=O)(=O)CC3CCN(CCCC(F)(F)F)CC3)c(Cl)cc2N1`, the inhibition in assay [1] and in assay [2] was less than 30% each time.

The values above are taken from ChEMBL document CHEMBL3797202, “Novel Oxindole Sulfonamides and Sulfamides: EPZ031686, the First Orally Bioavailable Small Molecule SMYD3 Inhibitor” (ACS Med Chem Lett, 2016).
